Experimental data taken from patent US12077503B2, “Substituted cyclic amides and their use as herbicides” (FMC CORPORATION, priority 2015, dated 2024).

Experiments:
Assay type in all cases: in vivo
Kochia (Kochia scoparia) [1] = experiment: Test A preemergence; details: Bassia scoparia, pre-emergence, 240 h, Preemergence; for pest or weed control at 31 g/ha: 31 g ai/ha, 0 to 100 scale where 0 is no effect and 100 is complete control, read-out: Kochia plant response rating; for pest or weed control at 125 g/ha: 125 g ai/ha, visual injury rating after approximately 10 d, read-out: Kochia plant response rating (0 to 100 scale, 0 is no effect, 100 is complete control)
Summary of the method: (§1)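 Compounds were formulated in a non-phytotoxic solvent mixture with surfactant and applied as a preemergence directed soil spray after seeding, or sprayed postemergence over plants 2 to 10 cm tall at the one- to two-leaf stage. Evaluation after about 10 d compared treated with untreated controls, using a scale from 0 (no effect) to 100 (complete control).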

[2] = system: barnyardgrass (Echinochloa crus-galli); experiment: Test A preemergence; details: Echinochloa crus-galli, pre-emergence, 240 h, Preemergence; for pest or weed control at 125 g/ha: 125 g ai/ha, visual injury rating after approximately 10 d, read-out: Barnyardgrass plant response rating (0 to 100 scale, 0 is no effect, 100 is complete control); for pest or weed control at 31 g/ha: 31 g ai/ha, 0 to 100 scale (0 no effect, 100 complete control), read-out: Plant response rating, Barnyardgrass
Summary of the method: as §1

[3] = system: giant foxtail (Setaria faberii); experiment: Test A preemergence; details: Setaria faberi, pre-emergence, 240 h, Preemergence; for pest or weed control at 125 g/ha: 125 g ai/ha, visual injury rating after approximately 10 d, read-out: Foxtail, Giant plant response rating (0 to 100 scale, 0 is no effect, 100 is complete control); for pest or weed control at 31 g/ha: 31 g ai/ha, 0 to 100 scale (0 no effect, 100 complete control), read-out: Plant response rating, Foxtail, Giant
Summary of the method: as §1

[4] = system: pigweed (Amaranthus retroflexus); experiment: Test A preemergence; details: Amaranthus retroflexus, pre-emergence, 240 h, Preemergence; for pest or weed control at 31 g/ha: 31 g ai/ha, 0 to 100 scale where 0 is no effect and 100 is complete control, read-out: Pigweed plant response rating; for pest or weed control at 125 g/ha: 125 g ai/ha, visual injury rating after approximately 10 d, read-out: Pigweed plant response rating (0 to 100 scale, 0 is no effect, 100 is complete control)
[5] = system: ragweed (common ragweed, Ambrosia elatior); experiment: Test A preemergence; details: Ambrosia artemisiifolia, pre-emergence, 240 h, Preemergence; for pest or weed control at 31 g/ha: 31 g ai/ha, 0 to 100 scale where 0 is no effect and 100 is complete control, read-out: Ragweed plant response rating; for pest or weed control at 125 g/ha: 125 g ai/ha, visual injury rating after approximately 10 d, read-out: Ragweed plant response rating (0 to 100 scale, 0 is no effect, 100 is complete control)
Summary of the method: as §1

[6] = system: ryegrass, Italian (Italian ryegrass, Lolium multiflorum); experiment: Test A preemergence; details: Lolium multiflorum, pre-emergence, 240 h, Preemergence; for pest or weed control at 31 g/ha: 31 g ai/ha, 0 to 100 scale where 0 is no effect and 100 is complete control, read-out: Ryegrass, Italian plant response rating; for pest or weed control at 125 g/ha: 125 g ai/ha, visual injury rating after approximately 10 d, read-out: Ryegrass, Italian plant response rating (0 to 100 scale, 0 is no effect, 100 is complete control)
Summary of the method: as §1

[7] = system: Galium (catchweed bedstraw, Galium aparine); experiment: Test A postemergence; details: Galium, post-emergence, 240 h, Postemergence, read-out: Plant response rating, Galium; for pest or weed control at 125 g/ha: 125 g ai/ha, visual injury after approximately 10 d, 0 to 100 scale where 0 is no effect and 100 is complete control; for pest or weed control at 31 g/ha: 31 g ai/ha, visual injury after approx. 10 d, 0 to 100 scale, 0 no effect, 100 complete control
Summary of the method: as §1

Kochia (Kochia scoparia) [8] = experiment: Test A postemergence; details: Bassia scoparia, post-emergence, 240 h, Postemergence, read-out: Plant response rating, Kochia; for pest or weed control at 125 g/ha: 125 g ai/ha, visual injury after approximately 10 d, 0 to 100 scale where 0 is no effect and 100 is complete control; for pest or weed control at 31 g/ha: 31 g ai/ha, visual injury after approx. 10 d, 0 to 100 scale, 0 no effect, 100 complete control
Summary of the method: as §1

[9] = system: barnyardgrass (Echinochloa crus-galli); experiment: Test A postemergence; details: Echinochloa crus-galli, post-emergence, 240 h, Postemergence, read-out: Plant response rating, Barnyardgrass; for pest or weed control at 125 g/ha: 125 g ai/ha, visual injury after approximately 10 d, 0 to 100 scale where 0 is no effect and 100 is complete control; for pest or weed control at 31 g/ha: 31 g ai/ha, visual injury after approx. 10 d, 0 to 100 scale, 0 no effect, 100 complete control
Summary of the method: as §1

[10] = system: blackgrass (Alopecurus myosuroides); experiment: Test A postemergence; details: Alopecurus myosuroides, post-emergence, 240 h, Postemergence, read-out: Plant response rating, Blackgrass; for pest or weed control at 125 g/ha: 125 g ai/ha, visual injury after approximately 10 d, 0 to 100 scale where 0 is no effect and 100 is complete control; for pest or weed control at 31 g/ha: 31 g ai/ha, visual injury after approx. 10 d, 0 to 100 scale, 0 no effect, 100 complete control
Summary of the method: as §1

corn (Zea mays) = experiment: Test A postemergence; details: Zea mays, post-emergence, 240 h, Postemergence; for Corn plant response rating (crop injury, 0 = no effect, 100 = complete kill) at 125 g/ha: 125 g ai/ha, visual injury after approximately 10 d, 0 to 100 scale where 0 is no effect and 100 is complete control; for Corn plant response rating (crop injury, 0 = no effect, 100 = complete kill) at 31 g/ha: 31 g ai/ha, visual injury after approx. 10 d, 0 to 100 scale, 100 complete control
Summary of the method: as §1

[11] = system: giant foxtail (Setaria faberii); experiment: Test A postemergence; details: Setaria faberi, post-emergence, 240 h, Postemergence, read-out: Plant response rating, Foxtail, Giant; for pest or weed control at 125 g/ha: 125 g ai/ha, visual injury after approximately 10 d, 0 to 100 scale where 0 is no effect and 100 is complete control; for pest or weed control at 31 g/ha: 31 g ai/ha, visual injury after approx. 10 d, 0 to 100 scale, 0 no effect, 100 complete control
Summary of the method: as §1

[12] = system: pigweed (Amaranthus retroflexus); experiment: Test A postemergence; details: Amaranthus retroflexus, post-emergence, 240 h, Postemergence, read-out: Plant response rating, Pigweed; for pest or weed control at 125 g/ha: 125 g ai/ha, visual injury after approximately 10 d, 0 to 100 scale where 0 is no effect and 100 is complete control; for pest or weed control at 31 g/ha: 31 g ai/ha, visual injury after approx. 10 d, 0 to 100 scale, 0 no effect, 100 complete control
Summary of the method: as §1

[13] = system: ragweed (common ragweed, Ambrosia elatior); experiment: Test A postemergence; details: Ambrosia artemisiifolia, post-emergence, 240 h, Postemergence, read-out: Plant response rating, Ragweed; for pest or weed control at 125 g/ha: 125 g ai/ha, visual injury after approximately 10 d, 0 to 100 scale where 0 is no effect and 100 is complete control; for pest or weed control at 31 g/ha: 31 g ai/ha, visual injury after approx. 10 d, 0 to 100 scale, 0 no effect, 100 complete control
Summary of the method: as §1

[14] = system: ryegrass, Italian (Italian ryegrass, Lolium multiflorum); experiment: Test A postemergence; details: Lolium multiflorum, post-emergence, 240 h, Postemergence, read-out: Plant response rating, Ryegrass, Italian; for pest or weed control at 125 g/ha: 125 g ai/ha, visual injury after approximately 10 d, 0 to 100 scale where 0 is no effect and 100 is complete control; for pest or weed control at 31 g/ha: 31 g ai/ha, visual injury after approx. 10 d, 0 to 100 scale, 0 no effect, 100 complete control
Summary of the method: as §1

[15] = system: wheat (Triticum aestivum); experiment: Test A postemergence; details: Triticum aestivum, post-emergence, 240 h, Postemergence, read-out: Plant response rating, Wheat; for plant injury at 125 g/ha: 125 g ai/ha, visual injury after approximately 10 d, 0 to 100 scale where 0 is no effect and 100 is complete control; for plant injury at 31 g/ha: 31 g ai/ha, visual injury after approx. 10 d, 0 to 100 scale, 0 no effect, 100 complete control
Summary of the method: as §1

[16] = system: barnyardgrass (Echinochloa crus-galli); experiment: Test B flooded paddy test; details: Echinochloa crus-galli, 250 g ai/ha, Flood; 0 to 100 scale where 0 is no effect and 100 is complete control; read-out: Barnyardgrass plant response rating
Summary of the method: (§2)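 2-leaf plants; pots flooded 3 cm over soil; cpd added to paddy water; depth held; greenhouse 13–15 d; visual rating vs controls, 0 = no effect, 100 = complete control.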

[17] = system: ducksalad (Heteranthera limosa); experiment: Test B flooded paddy test; details: Heteranthera limosa, 250 g ai/ha, Flood; 0 to 100 scale where 0 is no effect and 100 is complete control; read-out: Ducksalad plant response rating
Summary of the method: as §2

rice (Oryra sativa) = experiment: Test B flooded paddy test; details: Oryza sativa, 250 g ai/ha, Flood; 0 to 100 scale where 0 is no effect and 100 is complete control; read-out: Rice plant response rating
Summary of the method: as §2

[18] = system: sedge, umbrella (small-flower umbrella sedge, Cyperus difformis); experiment: Test B flooded paddy test; details: Cyperus difformis, 250 g ai/ha, Flood; 0 to 100 scale where 0 is no effect and 100 is complete control; read-out: Sedge, Umbrella plant response rating
Summary of the method: as §2

Structure (SMILES)	pest or weed control at 31 g/ha (Kochia (Kochia scoparia) [1])	pest or weed control at 125 g/ha (Kochia (Kochia scoparia) [1])	pest or weed control at 125 g/ha [2]	pest or weed control at 31 g/ha [2]	pest or weed control at 125 g/ha [3]	pest or weed control at 31 g/ha [3]	pest or weed control at 31 g/ha [4]	pest or weed control at 125 g/ha [4]	pest or weed control at 31 g/ha [5]	pest or weed control at 125 g/ha [5]	pest or weed control at 31 g/ha [6]	pest or weed control at 125 g/ha [6]	pest or weed control at 125 g/ha [7]	pest or weed control at 31 g/ha [7]	pest or weed control at 125 g/ha (Kochia (Kochia scoparia) [8])	pest or weed control at 31 g/ha (Kochia (Kochia scoparia) [8])	pest or weed control at 125 g/ha [9]	pest or weed control at 31 g/ha [9]	pest or weed control at 125 g/ha [10]	pest or weed control at 31 g/ha [10]	further results
O=C(Nc1ccc(F)c(F)c1F)[C@H]1C(=O)N(C2CC2)CC[C@@H]1c1ccc(F)cc1 [Compound 1004]	0%	0%	0%	0%	30%	0%	0%	0%	0%	0%	0%	0%	0%	0%	0%	0%	0%	0%	0%	0%	Corn plant response rating (crop injury, 0 = no effect, 100 = complete kill) at 125 g/ha (corn (Zea mays)): 0%; Corn plant response rating (crop injury, 0 = no effect, 100 = complete kill) at 31 g/ha (corn (Zea mays)): 0%; pest or weed control at 125 g/ha [11]: 0%; pest or weed control at 31 g/ha [11]: 0%; pest or weed control at 125 g/ha [12]: 0%; pest or weed control at 31 g/ha [12]: 0%; pest or weed control at 125 g/ha [13]: 0%; pest or weed control at 31 g/ha [13]: 0%; pest or weed control at 125 g/ha [14]: 0%; pest or weed control at 31 g/ha [14]: 0%; plant injury at 125 g/ha [15]: 0%; plant injury at 31 g/ha [15]: 0%; pest or weed control at 250 g/ha [16]: 0%; pest or weed control at 250 g/ha [17]: 60%; pest or weed control at 250 g/ha (rice (Oryra sativa)): 0%; pest or weed control at 250 g/ha [18]: 0%
O=C(Nc1cccc(Cl)c1F)[C@H]1C(=O)N(C2CC2)CC[C@@H]1c1ccc(F)cc1 [Compound 1006]	0%	0%	0%	0%	0%	0%	0%	0%	0%	0%	0%	0%	0%	0%	0%	0%	0%	0%	0%	0%	Corn plant response rating (crop injury, 0 = no effect, 100 = complete kill) at 125 g/ha (corn (Zea mays)): 10%; Corn plant response rating (crop injury, 0 = no effect, 100 = complete kill) at 31 g/ha (corn (Zea mays)): 0%; pest or weed control at 125 g/ha [11]: 0%; pest or weed control at 31 g/ha [11]: 0%; pest or weed control at 125 g/ha [12]: 0%; pest or weed control at 31 g/ha [12]: 0%; pest or weed control at 125 g/ha [13]: 10%; pest or weed control at 31 g/ha [13]: 10%; pest or weed control at 125 g/ha [14]: 0%; pest or weed control at 31 g/ha [14]: 0%; plant injury at 125 g/ha [15]: 0%; plant injury at 31 g/ha [15]: 0%; pest or weed control at 250 g/ha [16]: 0%; pest or weed control at 250 g/ha [17]: 0%; pest or weed control at 250 g/ha (rice (Oryra sativa)): 0%; pest or weed control at 250 g/ha [18]: 0%
